Test results taken from the NIST ThermoML archive (doi:10.1021/je800998u).

Assay: molar heat capacity at constant pressure
Conditions: 101.33 kPa, Crystal 2, Small (less than 1 g) adiabatic calorimetry

CC(C)COCC(C)C [diisobutyl ether]
Conditions	molar heat capacity at constant pressure [J/K/mol]
8.82 K	1.718
9.09 K	1.873
9.35 K	2.044
9.61 K	2.275
9.86 K	2.429
10 K	2.519
10.18 K	2.65
10.58 K	2.937
10.96 K	3.313
11.34 K	3.685
11.75 K	4.078
12.13 K	4.434
12.5 K	4.803
12.88 K	5.199
13.25 K	5.584
13.61 K	6.04
13.98 K	6.505
14.34 K	6.941
14.71 K	7.42
15 K	7.709
15.07 K	7.816
15.44 K	8.198
15.8 K	8.608
16.15 K	9.109
16.51 K	9.706
16.86 K	10.12
17.21 K	10.68
17.57 K	11.14
17.92 K	11.79
18.28 K	12.13
18.63 K	12.7
18.98 K	13.24
19.33 K	13.71
19.68 K	14.26
20 K	14.73
20.03 K	14.7
20.68 K	15.81
21.44 K	17.01
22.21 K	18.14
22.97 K	19.36
23.73 K	20.47
24.49 K	21.77
25 K	22.61
25.25 K	22.85
26 K	24.23
26.76 K	25.53
27.53 K	26.72
28.29 K	27.81
29.04 K	29.05
29.8 K	30
30 K	30.39
30.56 K	31.03
31.31 K	32.45
32.07 K	33.45
32.84 K	34.56
33.59 K	35.68
34.35 K	36.74
35 K	37.65
35.1 K	37.87
35.86 K	38.82
36.61 K	39.8
37.36 K	40.72
38.11 K	42.01
38.86 K	43.03
39.62 K	44.08
40 K	44.52
40.37 K	45.1
41.12 K	46.17
41.87 K	47.05
42.62 K	47.91
43.37 K	48.99
44.12 K	49.85
44.88 K	50.69
45 K	51.04
45.63 K	51.79
46.38 K	52.94
47.13 K	53.72
47.88 K	54.52
48.63 K	55.63
49.38 K	56.47
50 K	57.22
50.12 K	57.39
50.87 K	58.27
51.62 K	59.17
52.36 K	60.07
53.11 K	61.06
53.85 K	62.18
54.6 K	63.09
55 K	63.54
55.34 K	63.95
56.09 K	64.95
56.83 K	66.04
57.57 K	67.47
59.06 K	68.36
59.81 K	69.16
60 K	69.69
60.55 K	69.92
61.29 K	71.03
62.03 K	72.13
62.77 K	72.85
63.51 K	73.59
64.25 K	74.59
64.99 K	75.44
65 K	75.34
65.73 K	76.13
66.47 K	76.73
67.21 K	77.8
67.95 K	78.53
68.69 K	79.4
69.43 K	79.64
70 K	80.28
70.16 K	80.5
71.06 K	80.99
72.11 K	81.81
73.16 K	83.2
74.21 K	84.22
75 K	84.76
75.26 K	84.92
76.31 K	85.85
77.36 K	86.85
77.99 K	88.21
78.41 K	87.75
79.13 K	89.1
79.45 K	89.04
80 K	89.65
80.18 K	90.02
80.5 K	89.99
81.22 K	91.36
81.55 K	90.95
82.26 K	92.28
82.59 K	92.15
83.3 K	92.88
83.63 K	93.23
84.34 K	93.83
84.68 K	93.86
85 K	94.92
85.37 K	94.92
85.72 K	96.14
86.41 K	96.9
87.44 K	97.86
88.48 K	98.97
89.51 K	100
90 K	100.3
90.55 K	101.18
91.58 K	101.87
92.61 K	102.82
93.65 K	104.36
94.68 K	104.93
95 K	105.3
95.71 K	105.7
96.75 K	106.52
97.78 K	107.57
98.81 K	108.62
99.84 K	109.08
100 K	109.7
100.86 K	110.59
101.89 K	111.96
102.92 K	112.24
103.95 K	113.24
104.98 K	114.44
106.01 K	115.08
107.04 K	116.13
108.06 K	116.43
109.09 K	117.54
110 K	118.6
110.11 K	118.56
111.14 K	119.31
112.16 K	120.35
113.18 K	121.34
114.21 K	122.79
115.23 K	123.92
116.25 K	124.47
117.27 K	125.86
118.29 K	126.81
119.32 K	127.51
120 K	128
120.34 K	128.32
121.36 K	129.04
122.38 K	130.15
123.4 K	131.15
124.42 K	131.86
125.44 K	132.59
126.46 K	133.8
127.47 K	134.67
128.49 K	135.82
129.51 K	137.05
130 K	137.1
130.53 K	137.63
131.54 K	138.57
132.56 K	139.45
133.57 K	140.23
134.59 K	141.56
135.6 K	142.61
136.62 K	143.17
137.63 K	144.11
138.64 K	145.82
139.66 K	146.49
140 K	147
